In brackets after ≈: the same amount, converted by molar mass.
Experiments:
Shigella flexneri = assay: MIC against clinical isolates; type: cell-based; settings: Table 5-5, clinical isolate; unit assumed
Protocol: (§1) The minimum inhibitory concentration (MIC) was determined by the plate method disclosed in "Chemotherapy" (Japan), Vol. 16, (1968), pages 98-99. The culture medium used was a Heart infusion agar (pH 7.4). The number of the cells per plate used in the inoculum was 10^4 (10^6 cells/ml).
(§2) MIC was determined in the same manner as in the preceding paragraph (1).

Shigella sonnei = assay: MIC against clinical isolates; type: cell-based; settings: Table 5-5, clinical isolate; unit assumed
Protocol: as §1, §2

Salmonella typhi-murium = assay: MIC against clinical isolates; type: cell-based; settings: Table 5-5, clinical isolate; unit assumed
Pseudomonas aeruginosa = assay: MIC against clinical isolates; type: cell-based; settings: unit assumed
[1] = tested on: β-lactamase, Pseudomonas aeruginosa GN 238; assay: Resistant activity against β-lactamase, iodometric assay; type: biochemical; settings: β-lactamase from Pseudomonas aeruginosa GN 238; Potassium Penicillin G = 100
Protocol: (3) Resistant activity against β-lactamase, Pseudomonas aerugionsa GN 238:
The resistant activity of each compound against β-lactamase was measured in the manner described below.
β-Lactamase was prepared from Pseudomonas aeruginosa GN 238. This microorganism was cultured in 100 ml of a medium containing 2 g of yeast extract, 10 g of polypeptone, 2 g of glucose, 7 g of disodium hydrogen phosphate, 2 g of potassium dihydrogen phosphate, 1.2 g of ammonium sulfate and 0.4 g of magnesium sulfate, per liter, in a 500-ml Erlenmeyer flask for 6 hrs. at 37° C. with shaking. The resulting cells were collected by centrifugation (5,000 r.p.m.×10 min.), washed three times with 0.1 M phosphate buffer (pH 7.0). Subsequently, the cells were subjected to sonication (20 KHz, 20 min.) and then centrifuged at 15,000 r.p.m. for 60 min. By using the supernatant of enzyme fluid, the resistance of each compound against β-lactamase was determined by the iodometric assay method. Each numeral shown in Table 7 is a relative activity value calculated by assuming as 100 the activity of the control Potassium Penicillin G.

Klebsiella pneumoniae [2] = assay: MIC against clinical isolates; type: cell-based; settings: unit assumed
Proteus mirabilis = assay: MIC against clinical isolates; type: cell-based; settings: unit assumed
Escherichia coli NIHJ = assay: MIC, plate method, standard strains; type: cell-based; settings: unit assumed
In short: (§3)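 Test compound was incorporated into Heart infusion agar at pH 7.4, plates were inoculated with 10^4 cells each (suspension at 10^6 cells/ml), and the minimum inhibitory concentration was recorded.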

Klebsiella pneumoniae [3] = assay: MIC, plate method, standard strains; type: cell-based; settings: unit assumed
In short: as §3

Proteus vulgaris 3027 = assay: MIC, plate method, standard strains; type: cell-based; settings: unit assumed
In short: as §3

[4] = tested on: Pseudomonas aeruginosa I.F.O.; assay: MIC, plate method, standard strains; type: cell-based; settings: unit assumed
In short: as §3

[5] = tested on: Staphylococcus aureus 209p; assay: MIC, plate method, standard strains; type: cell-based; settings: unit assumed
In short: as §3

Staphylococcus aureus = assay: MIC against clinical isolates; type: cell-based; settings: unit assumed
Proteus vulgaris = assay: MIC against clinical isolates; type: cell-based; settings: unit assumed
Escherichia coli = assay: MIC against clinical isolates; type: cell-based; settings: unit assumed
Proteus morganii = assay: MIC against clinical isolates; type: cell-based; settings: unit assumed
Proteus rettgeri = assay: MIC against clinical isolates; type: cell-based; settings: Table 6-5, clinical isolate; unit assumed

CCCCCCCCN1CCN(C(=O)NC(C(=O)NC2C(=O)N3C2SC(C)(C)C3C(=O)O)c2ccccc2)C(=O)C1=O (single isomer, unassigned) [Compound No. 47]
MIC Shigella flexneri JS 11215 (Shigella flexneri): 6.25 µg/mL (≈ 10.4 µM)
MIC Shigella flexneri JS 11839 (Shigella flexneri): 1.57 µg/mL (≈ 2.61 µM)
MIC Shigella sonnei JS 11232 (Shigella sonnei): 6.25 µg/mL (≈ 10.4 µM)
MIC Shigella sonnei JS 11755 (Shigella sonnei): 0.79 µg/mL (≈ 1.31 µM)
MIC Salmonella typhi-murium SL 858 (Salmonella typhi-murium): < 0.4 µg/mL
MIC Salmonella typhi-murium SL 2136 (Salmonella typhi-murium): 50 µg/mL (≈ 83.1 µM)
MIC Pseudomonas aeruginosa GN 376 (Pseudomonas aeruginosa; Table 5-3, clinical isolate): 50 µg/mL (≈ 83.1 µM)
MIC Pseudomonas aeruginosa GN 383 (Pseudomonas aeruginosa; Table 5-3, clinical isolate): 50 µg/mL (≈ 83.1 µM)
MIC Pseudomonas neruginosa S-1 (Pseudomonas aeruginosa; Table 5-4, clinical isolate): 50 µg/mL (≈ 83.1 µM)
MIC Pseudomonas neruginosa S-2 (Pseudomonas aeruginosa; Table 5-4, clinical isolate): 50 µg/mL (≈ 83.1 µM)
MIC Pseudomonas neruginosa S-3 (Pseudomonas aeruginosa; Table 5-4, clinical isolate): 50 µg/mL (≈ 83.1 µM)
MIC Pseudomonas neruginosa S-4 (Pseudomonas aeruginosa; Table 5-4, clinical isolate): 50 µg/mL (≈ 83.1 µM)
Relative activity (%), resistant activity against β-lactamase [1]: 1%
MIC Klebsiella pneumoniae GN 917 (Klebsiella pneumoniae [2]; Table 5-4, clinical isolate): 1.57 µg/mL (≈ 2.61 µM)
MIC Klebsiella pneumoniae GN 3850 (Klebsiella pneumoniae [2]; Table 5-4, clinical isolate): 3.13 µg/mL (≈ 5.2 µM)
MIC Proteus mirabilis (Proteus mirabilis; Table 5-6, clinical isolate): < 0.4 µg/mL
MIC Esche--richin coil NIHJ (Escherichia coli NIHJ; Table 3, standard strain): < 1.57 µg/mL
MIC Klebsiella pneumoniae (Klebsiella pneumoniae [3]; Table 3, standard strain): < 1.57 µg/mL
MIC Proteus vulgaris 3027 (Proteus vulgaris 3027; Table 3, standard strain): < 1.57 µg/mL
MIC Pseudomonas aeruginosa I.F.C ([4]; Table 3, standard strain): 6.25 µg/mL (≈ 10.4 µM)
MIC Staphylococcus aureus 209p ([5]; Table 3, standard strain, Heart infusion agar pH 7.4): < 1.57 µg/mL
MIC Staphylococcus aureus F-1 (Staphylococcus aureus; Table 5-1, clinical isolate): 6.25 µg/mL (≈ 10.4 µM)
MIC Staphylococcus aureus F-2 (Staphylococcus aureus; Table 5-1, clinical isolate): 1.57 µg/mL (≈ 2.61 µM)
MIC Staphylococcus aureus F-3 (Staphylococcus aureus; Table 5-1, clinical isolate): 1.57 µg/mL (≈ 2.61 µM)
MIC Staphylococcus aureus F-5 (Staphylococcus aureus; Table 5-1, clinical isolate): > 200 µg/mL
MIC Staphylococcus aureus MS 8588 (Staphylococcus aureus; Table 5-1, clinical isolate): 3.13 µg/mL (≈ 5.2 µM)
MIC Staphylococcus aureus MS 8596 (Staphylococcus aureus; Table 5-1, clinical isolate): 3.13 µg/mL (≈ 5.2 µM)
MIC Staphylococcus aureus MS 8619 (Staphylococcus aureus; Table 5-1, clinical isolate): < 0.4 µg/mL
MIC Staphylococcus aureus MS 8684 (Staphylococcus aureus; Table 5-1, clinical isolate): 3.13 µg/mL (≈ 5.2 µM)
MIC Staphylococcus aureus MS 8713 (Staphylococcus aureus; Table 5-1, clinical isolate): 6.25 µg/mL (≈ 10.4 µM)
MIC Proteus vulgaris (Proteus vulgaris; Table 5-6, clinical isolate): < 0.4 µg/mL
MIC Escherichia coli GN 3452 (Escherichia coli; Table 5-2, clinical isolate): 1.57 µg/mL (≈ 2.61 µM)
MIC Escherichia coli GN 3465 (Escherichia coli; Table 5-2, clinical isolate): 6.25 µg/mL (≈ 10.4 µM)
MIC Escherichia coli GN 3481 (Escherichia coli; Table 5-2, clinical isolate): 1.57 µg/mL (≈ 2.61 µM)
MIC Escherichia coli GN 3611 (Escherichia coli; Table 5-2, clinical isolate): > 200 µg/mL
MIC Escherichia coli K-1 (Escherichia coli; Table 5-2, clinical isolate): 1.57 µg/mL (≈ 2.61 µM)
MIC Escherichia coli K-2 (Escherichia coli; Table 5-2, clinical isolate): 1.57 µg/mL (≈ 2.61 µM)
MIC Escherichia coli K-3 (Escherichia coli; Table 5-2, clinical isolate): 100 µg/mL (≈ 166 µM)
MIC Proteus morganii (Proteus morganii; Table 5-6, clinical isolate): < 0.4 µg/mL

CCN1CCN(C(=O)NC(C(=O)NC2C(=O)N3C(C(=O)O)=C(CSc4nnnn4CC)CSC23)c2ccccc2)C(=O)C1=O (single isomer, unassigned) [Compound No. 77]
MIC Pseudomonas aeruginosa GN (Pseudomonas aeruginosa; Table 6-3, clinical isolate, strain number not given): 25 µg/mL (≈ 38.8 µM)
MIC Pseudomonas aeruginosa GN4 (Pseudomonas aeruginosa; Table 6-3, clinical isolate): 25 µg/mL (≈ 38.8 µM)
MIC Pseudomonas aeruginosa GN 82 (Pseudomonas aeruginosa; Table 6-3, clinical isolate): 25 µg/mL (≈ 38.8 µM)
MIC Pseudomonas aeruginosa GN 221 (Pseudomonas aeruginosa; Table 6-3, clinical isolate): 12.5 µg/mL (≈ 19.4 µM)
MIC Pseudomonas aeruginosa GN 376 (Pseudomonas aeruginosa; Table 6-3, clinical isolate): 25 µg/mL (≈ 38.8 µM)
MIC Pseudomonas aeruginosa GN 1035 (Pseudomonas aeruginosa; Table 6-3, clinical isolate): 50 µg/mL (≈ 77.7 µM)
MIC Pseudomonas aeruginosa GN 1091 (Pseudomonas aeruginosa; Table 6-3, clinical isolate): 25 µg/mL (≈ 38.8 µM)
MIC Pseudomonas aeruginosa GN 2565 (Pseudomonas aeruginosa; Table 6-3, clinical isolate): 50 µg/mL (≈ 77.7 µM)
MIC Pseudomonas aeruginosa S-1 (Pseudomonas aeruginosa; Table 6-4, clinical isolate): 50 µg/mL (≈ 77.7 µM)
MIC Klebsiella pneumoniae GN 917 (Klebsiella pneumoniae [2]; Table 6-4, clinical isolate): 1.56 µg/mL (≈ 2.42 µM)
MIC Klebsiella pneumoniae GN 4081 (Klebsiella pneumoniae [2]; Table 6-4, clinical isolate): 3.13 µg/mL (≈ 4.86 µM)
MIC Proteus mirabilis (Proteus mirabilis; Table 6-5, clinical isolate): 1.56 µg/mL (≈ 2.42 µM)
MIC Escherichia coli NIHJ (Escherichia coli NIHJ; Table 4, standard strain): < 0.1 µg/mL
MIC Klebsiella pneumoniae (Klebsiella pneumoniae [3]; Table 4, standard strain): 0.4 µg/mL (≈ 0.621 µM)
MIC Proteus vulgaris 3027 (Proteus vulgaris 3027; Table 4, standard strain): 1.57 µg/mL (≈ 2.44 µM)
MIC Pseudomonas aeruginosa I.F.O. ([4]; Table 4, standard strain): 25 µg/mL (≈ 38.8 µM)
MIC Staphylococcus aureus 209p ([5]; Table 4, standard strain): 1.57 µg/mL (≈ 2.44 µM)
MIC Staphylococcus aureus F-1 (Staphylococcus aureus; Table 6-1, clinical isolate): 1.56 µg/mL (≈ 2.42 µM)
MIC Staphylococcus aureus MS 8588 (Staphylococcus aureus; Table 6-1, clinical isolate): 1.56 µg/mL (≈ 2.42 µM)
MIC Staphylococcus aureus MS 8596 (Staphylococcus aureus; Table 6-1, clinical isolate): 1.56 µg/mL (≈ 2.42 µM)
MIC Staphylococcus aureus MS 8619 (Staphylococcus aureus; Table 6-1, clinical isolate): 1.56 µg/mL (≈ 2.42 µM)
MIC Staphylococcus aureus MS 8684 (Staphylococcus aureus; Table 6-1, clinical isolate): 1.56 µg/mL (≈ 2.42 µM)
MIC Proteus rettgeri (Proteus rettgeri): 1.56 µg/mL (≈ 2.42 µM)
MIC Proteus vulgaris (Proteus vulgaris; Table 6-5, clinical isolate): 0.78 µg/mL (≈ 1.21 µM)
MIC Escherichia coli GN 3435 (Escherichia coli; Table 6-2, clinical isolate): 1.56 µg/mL (≈ 2.42 µM)
MIC Escherichia coli GN 3452 (Escherichia coli; Table 6-2, clinical isolate): 1.56 µg/mL (≈ 2.42 µM)
MIC Escherichia coli GN 3465 (Escherichia coli; Table 6-2, clinical isolate): 6.25 µg/mL (≈ 9.71 µM)
MIC Escherichia coli K-2 (Escherichia coli; Table 6-2, clinical isolate): 3.13 µg/mL (≈ 4.86 µM)
MIC Escherichia coli K-4 (Escherichia coli; Table 6-2, clinical isolate): 1.56 µg/mL (≈ 2.42 µM)
MIC Proteus morganii (Proteus morganii; Table 6-5, clinical isolate): 1.56 µg/mL (≈ 2.42 µM)
